Earlier results as cited in patent US20090325943A1, “VETERINARY PHARMACEUTICAL COMPOSITIONS FOR THE TREATMENT OF PAIN AND INFLAMMATION” (priority 2006, published 2009).

Experiments:
[1] = dog, regardless of the administration route

For `COc1cccc(C2(O)CCCCC2CN(C)C)c1` (stereo not shown) [tramadol], the “half-life (elimination mainly by the renal route)” value [1] is listed as “approx. 2.5 hours”, the “bond with the plasma proteins” value (6 animal species) is listed as “modest” and the “peak plasma concentration (time to peak)” value (6 animal species) is listed as no more than 2 h. For the same molecule, the absorption (administered by the i.m. route) was “almost total”.
